Data on twelve compounds can be found in PubChem BioAssay (NCI).

Test systems include A498 renal; A549 NSCLC; COLO 205 colon; EKVX NSCLC; HCT-116 colon; HOP-92 NSCLC; IGROV1 ovarian; M14 melanoma; MALME-3M melanoma; TK-10 renal.
Assay in all cases: NCI tumour cell line growth inhibition, 48 h

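Tested at 5 concentrations; 48 h exposure; 96-well plates; endpoints linearly interpolated, else capped at highest concentration. The concentration for full growth arrest is given as TGI.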

In the case of `Brc1ccc2c(c1)-c1nc3c(cc1CC2)CCc1ccc(Br)cc1-3`, the TGI in the test on A498 renal, in the test with A549 NSCLC, with COLO 205 colon, in the test on EKVX NSCLC, with HCT-116 colon and in the test on HOP-92 NSCLC was over 100 µM in each case. In addition, the TGI in the test with IGROV1 ovarian, in the test with M14 melanoma, with MALME-3M melanoma and in the test with TK-10 renal was over 100 µM throughout.
For the compound `COC(=O)c1sc2ncc3c(c2c1N)CC(C)CC3` (stereo not given), the TGI with A498 renal, in the test with A549 NSCLC, in the test on COLO 205 colon, with EKVX NSCLC, in the test on HCT-116 colon and in the test with HOP-92 NSCLC was over 100 µM each time. For the same compound, the TGI in the test with IGROV1 ovarian, with M14 melanoma, in the test on MALME-3M melanoma and in the test on TK-10 renal was over 100 µM throughout.
Take `C=C1CC2C(=O)N(c3ccccc3)C(=O)C2CC1n1[nH]c(=O)n(Cc2ccccc2)c1=O` (stereo not given): the TGI in the test with A498 renal, in the test on A549 NSCLC, with COLO 205 colon, in the test on EKVX NSCLC, with HCT-116 colon and in the test with HOP-92 NSCLC was over 100 µM throughout. The TGI in the test with IGROV1 ovarian, in the test on M14 melanoma, in the test on MALME-3M melanoma and in the test with TK-10 renal was over 100 µM throughout.
Turning to `O=c1oc2ccccc2c2nc3ccccc3cc12`, the TGI in the test with A498 renal was 96.4 µM; with A549 NSCLC it was over 100 µM; in the test with COLO 205 colon, over 100 µM; in the test on EKVX NSCLC, over 100 µM; with HCT-116 colon, over 100 µM; in the test with HOP-92 NSCLC, 90.1 µM. Moreover, the TGI in the test on IGROV1 ovarian, in the test with M14 melanoma, in the test on MALME-3M melanoma and in the test with TK-10 renal was over 100 µM throughout.
Regarding `Cc1cn(C2CC(OC(c3ccccc3)(c3ccccc3)c3ccccc3)C(COC(c3ccccc3)(c3ccccc3)c3ccccc3)O2)c(=O)[nH]c1=O` (stereo not given), the TGI was 73.8 µM with A498 renal; over 100 µM in the test with A549 NSCLC; over 100 µM in the test on COLO 205 colon; over 100 µM in the test on EKVX NSCLC; over 100 µM in the test with HCT-116 colon; 83.6 µM with HOP-92 NSCLC. In addition, the TGI in the test on IGROV1 ovarian, in the test with M14 melanoma, in the test with MALME-3M melanoma and with TK-10 renal was over 100 µM each time.
`CC[P+](C#Cc1ccccc1)(c1ccccc1)c1ccccc1`: the TGI in the test with A498 renal is 21.2 µM; in the test with A549 NSCLC, 14.8 µM; in the test on COLO 205 colon, 2.59 µM; in the test with EKVX NSCLC it was 11.9 µM; in the test on HCT-116 colon, 5.86 µM; in the test on HOP-92 NSCLC it was 5.9 µM. Further, the TGI with IGROV1 ovarian is 11.9 µM; in the test on M14 melanoma, 3.56 µM; in the test with MALME-3M melanoma, 4.19 µM; in the test on TK-10 renal it was 7.09 µM.
On to `COc1cc2c(cc1O)CC[n+]1cc3c(OC)c(OC)ccc3cc1-2`, for which the TGI with A498 renal, in the test with A549 NSCLC, with COLO 205 colon, in the test on EKVX NSCLC, in the test with HCT-116 colon and with HOP-92 NSCLC was over 100 µM each time. The TGI with IGROV1 ovarian, with M14 melanoma, in the test with MALME-3M melanoma and in the test on TK-10 renal was over 100 µM throughout.
On to `O=[N+]([O-])c1ccc2nc3c(nc2c1)-c1c2ccccc2cc2cccc-3c12`, for which the TGI was 2.37 µM in the test with A498 renal; over 100 µM in the test with A549 NSCLC; over 100 µM in the test with COLO 205 colon; over 100 µM with EKVX NSCLC; over 100 µM in the test with HCT-116 colon; 58 µM in the test with HOP-92 NSCLC. For the same compound, the TGI with IGROV1 ovarian is over 28.4 µM; in the test with M14 melanoma, over 91.7 µM; in the test with MALME-3M melanoma, 76.5 µM; in the test on TK-10 renal, over 100 µM.
Turning to `CC1=NC(C)(C)N(O)C1(C)C`, the TGI in the test with A498 renal, in the test with A549 NSCLC, in the test with COLO 205 colon, in the test with EKVX NSCLC, in the test on HCT-116 colon and in the test with HOP-92 NSCLC was over 100 µM each time. For the same compound, the TGI in the test with IGROV1 ovarian, in the test with M14 melanoma, with MALME-3M melanoma and in the test on TK-10 renal was over 100 µM in each case.
As for `COc1cc(-c2c3c(cc4c2OCO4)[C@@H](Nc2ccc4c(c2)Cc2cc(N[C@@H]5c6cc7c(cc6C(c6cc(OC)c(O)c(OC)c6)[C@H]6C(=O)OC[C@H]56)OCO7)ccc2-4)[C@H]2COC(=O)[C@@H]2C3)cc(OC)c1O` (stereo not given in full), the TGI is 94.2 µM in the test on A498 renal; over 100 µM with A549 NSCLC; 28.7 µM in the test on COLO 205 colon; over 100 µM with EKVX NSCLC; 57 µM in the test on HCT-116 colon; 97.3 µM in the test on HOP-92 NSCLC. Besides, the TGI is 21.3 µM in the test with IGROV1 ovarian, 50.3 µM in the test with M14 melanoma, 60.4 µM with MALME-3M melanoma and over 100 µM in the test with TK-10 renal.
On to `COc1cc(/C=C/c2cc(=O)cc(/C=C/c3ccc(O)c(OC)c3)o2)ccc1O`, for which the TGI in the test with A498 renal, in the test with A549 NSCLC, in the test with COLO 205 colon, with EKVX NSCLC, in the test on HCT-116 colon and in the test on HOP-92 NSCLC was over 100 µM throughout. Further, the TGI with IGROV1 ovarian, with M14 melanoma, in the test on MALME-3M melanoma and with TK-10 renal was over 100 µM each time.
Regarding `O=C(O)c1cc2ccccc2c(S(=O)(=O)O)c1O`, the TGI in the test on A498 renal, in the test with A549 NSCLC, in the test on COLO 205 colon, in the test with EKVX NSCLC, with HCT-116 colon and in the test on HOP-92 NSCLC was over 100 µM throughout. In addition, the TGI in the test with IGROV1 ovarian, in the test on M14 melanoma, with MALME-3M melanoma and in the test on TK-10 renal was over 100 µM throughout.
